# Measurements as given in US5601801A, “Radiolabelled angiotensin converting enzyme inhibitors” (Merck Frosst Canada, Inc., priority 1994, dated 1997).
# Like-named read-outs stand apart in the source and are kept apart here.
# What was measured:
# [1] = Biodistribution of ^131 I-3 in CD-1 Mice, normal and blocked with lisinopril; type: in vivo; settings: for tissue uptake at 0.5 h / tissue uptake at 1.5 h / tissue uptake at 3 h / tissue uptake at 6 h: iv, 1 uCi
# Protocol: It is well known that there are high ACE concentrations in the lungs, kidneys, pre-optic region of the brain and the blood.^4 Localization of the radioactivity in these organs was expected. […] A blocking study was undertaken to differentiate between specific and non-specific binding.
# ^131 I-3 was prepared as described above and used in this experiment. The experiment was carried out using male CD-1 mice. The mice were fasted 15 hours prior to injection with 1 μCi of ^131 I-3 by bolus injection into the lateral tail vein. At various times following the dosing, selected mice were sacrificed, exsanguinated and dissected. The desired organs were rinsed, blotted, weighed and counted. For the blocking experiment, mice were treated with 10 μg of lisinopril (by bolus injection into the lateral tail vein) 5 minutes before injection of ^131 I-3.
# This blocking experiment was an attempt to differentiate between specific and non-specific binding. […] This is illustrated by the dramatic decrease in radioactivity present in these organs in the blocked biodistribution as compared to the normal biodistribution. […] The anomaly of the first time point has yet to be explained.
# [2] = Imaging of a New Zealand White Rabbit with ^131 I-3; type: in vivo; settings: intravenous ear injection
# Source text: It was thought that this small intestine uptake could be due to a difference in mouse ACE or in its distribution as compared to human ACE. It was decided to carry out this imaging experiment in a rabbit since rabbit ACE is believed to be similar to human ACE. It should be noted that it was rabbit ACE which was used in the IC50 assay.
# ^131 I-3 prepared as described above was taken up in phosphate buffered saline, the solution was filtered through a 0.2μ Millipore filter, and was introduced into the rabbit by intravenous ear injection followed by imaging of the rabbit.
# [3] = mouse, blood, blocked (lisinopril), read-out: Biodistribution, Blood
# [4] = mouse, blood, normal (not blocked), read-out: Biodistribution, Blood
# [5] = mouse, contents, blocked (lisinopril), read-out: Biodistribution, Contents
# [6] = mouse, contents, normal (not blocked), read-out: Biodistribution, Contents
# [7] = mouse, fat, blocked (lisinopril), read-out: Biodistribution, Fat
# [8] = mouse, fat, normal (not blocked), read-out: Biodistribution, Fat
# [9] = mouse, kidney, blocked (lisinopril), read-out: Biodistribution, Kidney
# [10] = mouse, kidney, normal (not blocked), read-out: Biodistribution, Kidney
# [11] = mouse, large intestine, blocked (lisinopril), read-out: Biodistribution, lg. Intest.
# [12] = mouse, large intestine, normal (not blocked), read-out: Biodistribution, lg. Intest.
# [13] = mouse, liver, blocked (lisinopril), read-out: Biodistribution, Liver
# [14] = mouse, liver, normal (not blocked), read-out: Biodistribution, Liver
# [15] = mouse, lung, blocked (lisinopril), read-out: Biodistribution, Lung
# [16] = mouse, lung, normal (not blocked), read-out: Biodistribution, Lung
# [17] = mouse, muscle, blocked (lisinopril), read-out: Biodistribution, Muscle
# [18] = mouse, muscle, normal (not blocked), read-out: Biodistribution, Muscle
# [19] = mouse, small intestine, blocked (lisinopril), read-out: Biodistribution, Sm. Intest.
# [20] = mouse, small intestine, normal (not blocked), read-out: Biodistribution, Sm. Intest.
# [21] = mouse, stomach, blocked (lisinopril), read-out: Biodistribution, Stomach
# [22] = mouse, stomach, normal (not blocked), read-out: Biodistribution, Stomach
structure (smiles),measurement,setting,value
"O=C(NCCCC[C@H](N[C@@H](CCc1ccccc1)C(=O)O)C(=O)N1CCC[C@H]1C(=O)O)c1cccc([131I])c1 [^131 I-3, Lisinopril N^ε -radioiodobezamide]","kidney uptake, blocked vs normal","[1]; 0.5 hours, pre-injection with lisinopril",slight increase (or no change)
same,"nature of uptake in kidney, lung and small intestine",[1]; blocking experiment,due to specific binding
same,uptake in kidneys and lungs,[1]; early time points,uptake in the kidneys and lungs at early time points
same,tissue uptake at 0.5 h,"[1]; mouse, blood, 0.5 hours, blocked (lisinopril), read-out: Biodistribution, Blood",6 %ID/g
same,tissue uptake at 0.5 h,"[1]; mouse, blood, 0.5 hours, normal (not blocked), read-out: Biodistribution, Blood",5.9 %ID/g
same,tissue uptake at 1.5 h,[1]; [3],3.2 %ID/g
same,tissue uptake at 1.5 h,[1]; [4],3.2 %ID/g
same,tissue uptake at 3 h,[1]; [3],1.3 %ID/g
same,tissue uptake at 3 h,[1]; [4],3.1 %ID/g
same,tissue uptake at 6 h,[1]; [3],0.9 %ID/g
same,tissue uptake at 6 h,[1]; [4],1 %ID/g
same,tissue uptake at 0.5 h,"[1]; mouse, contents, 0.5 hours, blocked (lisinopril), read-out: Biodistribution, Contents",17.9 %ID/g
same,tissue uptake at 0.5 h,"[1]; mouse, contents, 0.5 hours, normal (not blocked), read-out: Biodistribution, Contents",21.4 %ID/g
same,tissue uptake at 1.5 h,[1]; [5],28.5 %ID/g
same,tissue uptake at 1.5 h,[1]; [6],22.1 %ID/g
same,tissue uptake at 3 h,[1]; [5],15 %ID/g
same,tissue uptake at 3 h,[1]; [6],21.4 %ID/g
same,tissue uptake at 6 h,[1]; [5],48.9 %ID/g
same,tissue uptake at 6 h,[1]; [6],65.9 %ID/g
same,tissue uptake at 0.5 h,"[1]; mouse, fat, 0.5 hours, blocked (lisinopril), read-out: Biodistribution, Fat",0.6 %ID/g
same,tissue uptake at 0.5 h,"[1]; mouse, fat, 0.5 hours, normal (not blocked), read-out: Biodistribution, Fat",0.7 %ID/g
same,tissue uptake at 1.5 h,[1]; [7],0.5 %ID/g
same,tissue uptake at 1.5 h,[1]; [8],0.8 %ID/g
same,tissue uptake at 3 h,[1]; [7],0.2 %ID/g
same,tissue uptake at 3 h,[1]; [8],0.4 %ID/g
same,tissue uptake at 6 h,[1]; [7],0.1 %ID/g
same,tissue uptake at 6 h,[1]; [8],0.2 %ID/g
same,clearance from small intestine,"[1]; mouse, in vivo",quite slow clearance
same,clearance from the lungs,"[1]; mouse, in vivo",rapid clearance from the lungs
same,uptake in the small intestine,"[1]; mouse, in vivo",High uptake in the small intestine
same,tissue uptake at 0.5 h,"[1]; mouse, kidney, 0.5 hours, blocked (lisinopril), read-out: Biodistribution, Kidney",9.8 %ID/g
same,tissue uptake at 0.5 h,"[1]; mouse, kidney, 0.5 hours, normal (not blocked), read-out: Biodistribution, Kidney",7.1 %ID/g
same,tissue uptake at 1.5 h,[1]; [9],2.4 %ID/g
same,tissue uptake at 1.5 h,[1]; [10],7.1 %ID/g
same,tissue uptake at 3 h,[1]; [9],1.4 %ID/g
same,tissue uptake at 3 h,[1]; [10],6.9 %ID/g
same,tissue uptake at 6 h,[1]; [9],0.5 %ID/g
same,tissue uptake at 6 h,[1]; [10],9.6 %ID/g
same,tissue uptake at 0.5 h,"[1]; mouse, large intestine, 0.5 hours, blocked (lisinopril), read-out: Biodistribution, lg. Intest.",1.1 %ID/g
same,tissue uptake at 0.5 h,"[1]; mouse, large intestine, 0.5 hours, normal (not blocked), read-out: Biodistribution, lg. Intest.",1.5 %ID/g
same,tissue uptake at 1.5 h,[1]; [11],1.4 %ID/g
same,tissue uptake at 1.5 h,[1]; [12],1.1 %ID/g
same,tissue uptake at 3 h,[1]; [11],13.4 %ID/g
same,tissue uptake at 3 h,[1]; [12],2.6 %ID/g
same,tissue uptake at 6 h,[1]; [11],14.6 %ID/g
same,tissue uptake at 6 h,[1]; [12],18.6 %ID/g
same,tissue uptake at 0.5 h,"[1]; mouse, liver, 0.5 hours, blocked (lisinopril), read-out: Biodistribution, Liver",7.6 %ID/g
same,tissue uptake at 0.5 h,"[1]; mouse, liver, 0.5 hours, normal (not blocked), read-out: Biodistribution, Liver",7.2 %ID/g
same,tissue uptake at 1.5 h,[1]; [13],1.4 %ID/g
same,tissue uptake at 1.5 h,[1]; [14],4.9 %ID/g
same,tissue uptake at 3 h,[1]; [13],1.9 %ID/g
same,tissue uptake at 3 h,[1]; [14],3.8 %ID/g
same,tissue uptake at 6 h,[1]; [13],0.3 %ID/g
same,tissue uptake at 6 h,[1]; [14],0.8 %ID/g
same,tissue uptake at 0.5 h,"[1]; mouse, lung, 0.5 hours, blocked (lisinopril), read-out: Biodistribution, Lung",1 %ID/g
same,tissue uptake at 0.5 h,"[1]; mouse, lung, 0.5 hours, normal (not blocked), read-out: Biodistribution, Lung",4.8 %ID/g
same,tissue uptake at 1.5 h,[1]; [15],0.6 %ID/g
same,tissue uptake at 1.5 h,[1]; [16],1.8 %ID/g
same,tissue uptake at 3 h,[1]; [15],0.5 %ID/g
same,tissue uptake at 3 h,[1]; [16],1.7 %ID/g
same,tissue uptake at 6 h,[1]; [15],0.3 %ID/g
same,tissue uptake at 6 h,[1]; [16],0.5 %ID/g
same,tissue uptake at 0.5 h,"[1]; mouse, muscle, 0.5 hours, blocked (lisinopril), read-out: Biodistribution, Muscle",1.1 %ID/g
same,tissue uptake at 0.5 h,"[1]; mouse, muscle, 0.5 hours, normal (not blocked), read-out: Biodistribution, Muscle",1.1 %ID/g
same,tissue uptake at 1.5 h,[1]; [17],0.4 %ID/g
same,tissue uptake at 1.5 h,[1]; [18],0.8 %ID/g
same,tissue uptake at 3 h,[1]; [17],0.3 %ID/g
same,tissue uptake at 3 h,[1]; [18],0.6 %ID/g
same,tissue uptake at 6 h,[1]; [17],0.2 %ID/g
same,tissue uptake at 6 h,[1]; [18],0.3 %ID/g
same,tissue uptake at 0.5 h,"[1]; mouse, small intestine, 0.5 hours, blocked (lisinopril), read-out: Biodistribution, Sm. Intest.",19.8 %ID/g
same,tissue uptake at 0.5 h,"[1]; mouse, small intestine, 0.5 hours, normal (not blocked), read-out: Biodistribution, Sm. Intest.",31.9 %ID/g
same,tissue uptake at 1.5 h,[1]; [19],21.7 %ID/g
same,tissue uptake at 1.5 h,[1]; [20],27 %ID/g
same,tissue uptake at 3 h,[1]; [19],14.2 %ID/g
same,tissue uptake at 3 h,[1]; [20],27 %ID/g
same,tissue uptake at 6 h,[1]; [19],1.2 %ID/g
same,tissue uptake at 6 h,[1]; [20],20.1 %ID/g
same,tissue uptake at 0.5 h,"[1]; mouse, stomach, 0.5 hours, blocked (lisinopril), read-out: Biodistribution, Stomach",24.2 %ID/g
same,tissue uptake at 0.5 h,"[1]; mouse, stomach, 0.5 hours, normal (not blocked), read-out: Biodistribution, Stomach",25.1 %ID/g
same,tissue uptake at 1.5 h,[1]; [21],13.3 %ID/g
same,tissue uptake at 1.5 h,[1]; [22],28.7 %ID/g
same,tissue uptake at 3 h,[1]; [21],12.8 %ID/g
same,tissue uptake at 3 h,[1]; [22],14.2 %ID/g
same,tissue uptake at 6 h,[1]; [21],4.2 %ID/g
same,tissue uptake at 6 h,[1]; [22],5.1 %ID/g
same,blocking of uptake in kidney and small intestine,[1]; pre-injection with lisinopril,effectively blocked at all time points
same,"uptake in all other organs, blocked vs normal",[1]; pre-injection with lisinopril,no difference in uptake between the normal and blocked biodistributions
same,organs imaged,[2],"clearly show the lungs and kidneys at early time points, as well as in the bladder at later time points"
